# Assay results published in patent publication EP1137645B1, “ALPHA-METHYLBENZYL-CONTAINING THIOUREA INHIBITORS OF HERPES VIRUSES CONTAINING A […] GROUP” (Wyeth, priority 1998, dated 2000).
# Read-outs that look alike come from different tables or passages of the source.
# Legend:
# HSV- I = assay: HSV antiviral (ELISA) assay; assay type: cell-based; settings: read-out: IC50 (ug/ml) HSV
# In short: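 Vero cells in DMEM with 2% FBS treated with compound 30 min before HSV-1 infection (MOI 0.006), then incubated ~24 h at 37°C. Viral replication measured by ELISA against glycoprotein D with β-galactosidase-linked secondary and fluorogenic substrate (ex 365/em 450 nm); IC50 relative to untreated fluorescence.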
# VZV strain Ellen = assay: VZV antiviral (ELISA) assay; assay type: cell-based
# In short: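 HFF cells infected with VZV Ellen at multiplicity below 0.1 overnight, then mixed infected/uninfected cells seeded with compound in DMEM/2% FBS and incubated three days at 37°C, 5% CO2.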
# [1] = system: HCMV recombinant mutant virus whose genome contains the prokaryotic beta-glucuronidase gene; assay: microbe, parasite or virus in culture; assay type: cell-based, human cytomegalovirus; settings: for IC50: Human betaherpesvirus 5, Fibroblast
# In short: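 Human foreskin fibroblasts infected with HCMV recombinant carrying beta-glucuronidase under a viral promoter (e.g. RV145) in presence of compound. At 96 h post-infection, lysates assayed for beta-glucuronidase by colorimetric or fluorogenic substrate as replication readout; IC50 estimated from varying compound amounts.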
# [2] = Human alphaherpesvirus 3, HFF, read-out: % inhibition 10 ug/ml VZV
# [3] = Human alphaherpesvirus 3, HFF, read-out: IC50 (ug/ml) VZV
# [4] = read-out: IC50 ug/ml HCMV, HCMV, human foreskin fibroblasts
# [5] = Human alphaherpesvirus 3, read-out: % inhibition 10 ug/ml VZV, 10 ug/ml, VZV strain Ellen, HFF cells, ELISA
# [6] = Human alphaherpesvirus 3, VZV strain Ellen, HFF cells, ELISA, read-out: IC50 (ug/ml) VZV
# [7] = Human alphaherpesvirus 3, HFF, read-out: IC50 (ug/ml) VZV, VZV strain Ellen, HFF cells, ELISA
SMILES,"IC50 (HSV- I; HSV- I, Vero cells, ELISA) [µg/mL]",IC50 (VZV strain Ellen; [3]) [µg/mL],"IC50 [1, 4] [µg/mL]",IC50 (VZV strain Ellen; [6]) [µg/mL],IC50 ([1]; read-out: IC50 ug/ml HCMV) [µg/mL],other results
"O=C(Nc1ccc(NC(=S)Nc2cc(Cl)cc(Cl)c2)cc1)c1ccccc1F [Example 934, N-{4-[3-(3,5-Dichloro-phenyl)-thioureido]-phenyl}-2-fluoro-benzamide]",> 10,> 10,> 10,,,inhibition at 10 µg/mL (VZV strain Ellen; [2]): 18%
"O=C(Nc1ccc(NC(=S)Nc2cc(Cl)c(Cl)c(Cl)c2)cc1)c1ccccc1F [Example 937, 2-Fluoro-N-{4-[3-(3,4,5-trichloro-phenyl)-thioureido]-phenyl}-benzamide]",0.7,,,> 10,2,inhibition at 10 µg/mL (VZV strain Ellen; [5]): 25%
"O=C(Nc1ccc(NC(=S)Nc2ccccc2Cl)cc1)c1ccccc1F [Example 948, N-{4-[3-(2-Chloro-phenyl)-thioureido]-phenyl}-2-fluoro-benzamide]",6,> 10,4,,,inhibition at 10 µg/mL (VZV strain Ellen; [2]): 4%
"COC(=O)c1cccc(NC(=S)Nc2ccc(NC(=O)c3ccccc3F)cc2)c1 [Example 950, 3-{3-[4-(2-Fluoro-benzoylamino)-phenyl]-thioureido}-benzoic acid methyl ester]",8,,,> 10,> 10,
"NC(=O)c1cccc(NC(=S)Nc2ccc(NC(=O)c3ccccc3F)cc2)c1 [Example 952, N-[4-[[[[3-(Aminocarbonyl)phenyl]amino]thioxomethyl]amino]phenyl]-2-fluoro-benzamide]",> 10,,,> 10,> 10,inhibition at 10 µg/mL (VZV strain Ellen; [5]): 22%
"O=C(Nc1ccc(NC(=S)Nc2cccc([N+](=O)[O-])c2)cc1)c1ccccc1F [Example 959, 2-Fluoro-N-{4-[3-(3-nitro-phenyl)-thioureido]-phenyl}-benzamide]",0.7,,,> 10,> 10,inhibition at 10 µg/mL (VZV strain Ellen; [5]): 33%
"O=C(Nc1ccc(NC(=S)Nc2cccc(OC(F)(F)F)c2)cc1)c1ccccc1F [Example 961, 2-Fluoro-N-{4-[3-(3-trifluoromethoxy-phenyl)-thioureido]-phenyl}-benzamide]",> 10,,,> 10,> 10,inhibition at 10 µg/mL (VZV strain Ellen; [5]): 53%
"O=C(Nc1ccc(NC(=S)Nc2cccc(F)c2)cc1)c1ccccc1F [Example 962, 2-Fluoro-N-{4-[3-(3-fluoro-phenyl)-thioureido]-phenyl}-benzamide]",> 10,,,> 10,> 10,inhibition at 10 µg/mL (VZV strain Ellen; [5]): 10%
"O=C(O)c1cccc(NC(=S)Nc2ccc(NC(=O)c3ccccc3F)cc2)c1 [Example 963, 3-{3-[4-(2-Fluoro-benzoylamino)-phenyl]-thioureido}-benzoic acid]",> 10,,,> 10,> 10,inhibition at 10 µg/mL (VZV strain Ellen; [5]): 30%
"O=C(O)c1cccc(NC(=S)Nc2ccc(NC(=O)c3ccco3)cc2)c1 [Example 964, 3-(3-{4-[(Furan-2-carbonyl)-amino]-phenyl}-thioureido)-benzoic acid]",> 10,,,> 10,> 10,inhibition at 10 µg/mL (VZV strain Ellen; [5]): 0%
"CC(=O)c1cccc(NC(=S)Nc2ccc(NC(=O)c3ccccc3F)cc2)c1 [Example 965, N-{4-[3-(3-Acetyl-phenyl)-thioureido]-pbenyl}-2-fluoro-benzamide]",5,> 10,> 10,,,inhibition at 10 µg/mL (VZV strain Ellen; [2]): 12%
"CCCCNS(=O)(=O)c1cccc(NC(=S)Nc2ccc(NC(=O)c3ccccc3F)cc2)c1 [Example 966, N-{4-[3-(3-Butylsulfamoyl-phenyl)-thioureido]-phenyl}-2-fluoro-benzamide]",7,8,2.5,,,inhibition at 10 µg/mL (VZV strain Ellen; [2]): 95%
"O=C(Nc1ccc(NC(=S)Nc2cccc(S(=O)(=O)CCO)c2)cc1)c1ccccc1F [Example 969, 2-Fluoro-N-(4-{3-[3-(2-hydroxy-ethanesulfonyl)-phenyl]-thioureido}-phenyl)-benzamide]",> 10,> 10,> 10,,,inhibition at 10 µg/mL (VZV strain Ellen; [2]): 19%
"CC(NC(=S)Nc1ccc(NC(=O)c2ccccc2C(F)(F)F)cc1)c1cc2ccccc2o1 (stereo not drawn) [Example 974, N-{4-[3-(1-Benzofuran-2-yl-ethyl)-thioureido]-phenyl}-2-trifluoromethyl-benzamide]",,,> 10,,,IC50 (HSV- I; Vero): > 10 µg/mL; IC50 (VZV strain Ellen; [7]): > 7.5 µg/mL
"CC(NC(=S)Nc1ccc(C(=O)Nc2ccc(F)cc2)cc1)c1ccc(F)cc1 (stereo not drawn) [Example 975, N-(4-Fluoro-phenyl)-4-{3-[1-(4-fluoro-phenyl)-ethyl]-thioureido}-benzamide]",> 10,,,0.87,> 10,
"CC(NC(=S)Nc1ccc(NC(=O)c2nccc3ccccc23)cc1)c1ccc(F)cc1 (stereo not drawn) [Example 976, Isoquinoline-1-carboxylic acid (4-{3-[1-(4-fluoro-phenyl)-ethyl]-thioureido}-phenyl)-amide]",,,,,,"IC50 (HSV- I; Vero): > 10 µg/mL; IC50 (VZV strain Ellen; [7]): 0.04 µg/mL; IC50 ug/ml HCMV ([1]; HCMV, human foreskin fibroblasts): >10 µg/mL"
"CC(NC(=S)Nc1ccc(NC(=O)c2nccc3ccccc23)cc1)c1cc2ccccc2o1 (stereo not drawn) [Example 977, Isoquinoline-1-carboxylic acid {4-[3-(1-benzofuran-2-yl-ethyl)-thioureido]-phenyl}-amide]",,,> 10,,,IC50 (HSV- I; Vero): > 10 µg/mL; IC50 (VZV strain Ellen; [7]): 0.05 µg/mL
"CC(NC(=S)Nc1ccc(NC(=O)c2nccc3ccccc23)cc1)c1ccc(Br)cc1 (stereo not drawn) [Example 978, Isoquinoline-1-carboxylic acid (4-{3-[1-(4-bromo-phenyl)-ethyl]-thioureido}-phenyl)-amide]",,,7.8,,,IC50 (HSV- I; Vero): > 10 µg/mL; IC50 (VZV strain Ellen; [7]): 0.04 µg/mL
"CC(NC(=S)Nc1ccc(NC(=O)c2nccc3ccccc23)cc1)c1ccc(C#N)cc1 (stereo not drawn) [Example 979, Isoquinoline-1-carboxylic acid (4-{3-[1-(4-cyano-phenyl)-ethyl]-thioureido}-phenyl)-amide]",,,3.7,,,IC50 (HSV- I; Vero): > 10 µg/mL; IC50 (VZV strain Ellen; [7]): 0.13 µg/mL
"CC(NC(=S)Nc1ccc(NC(=O)c2cc3ccccc3o2)cc1)c1ccc(F)cc1 (stereo not drawn) [Example 980, Benzofuran-2-carboxylic acid (4-{3-[1-(4-fluoro-phenyl)-ethyl]-thioureido}-phenyl)-amide]",> 10,0.15,> 10,,,
"CC(NC(=S)Nc1ccc(NC(=O)c2cc3ccccc3o2)cc1)c1cc2ccccc2o1 (stereo not drawn) [Example 981, Benzofuran-2-carboxylic acid {4-[3-(1-benzofuran-2-yl-ethyl)-thioureido]-phenyl}-amide]",> 10,0.2,> 10,,,
"CC(NC(=S)Nc1ccc(NC(=O)c2cc3ccccc3o2)cc1)c1ccc(Br)cc1 (stereo not drawn) [Example 982, Benzofuran-2-carboxylic acid (4-{3-[1-(4-bromo-phenyl)-ethyl]-thioureido}-phenyl)-amide]",> 10,0.1,1.3,,,
"CC(NC(=S)Nc1ccc(NC(=O)c2cc3ccccc3o2)cc1)c1ccc(C#N)cc1 (stereo not drawn) [Example 983, Benzofuran-2-carboxylic acid (4-{3-[1-(4-cyano-phenyl)-ethyl]-thioureido}-phenyl)-amide]",> 10,0.6,1.1,,,
"CC(NC(=S)Nc1ccc(NC(=O)c2cc3ccccc3cn2)cc1)c1cc2ccccc2o1 (stereo not drawn) [Example 985, Isoquinoline-3-carboxylic acid {4-[3-(1-benzofuran-2-yl-ethyl)-thioureido]-phenyl}-amide]",,,> 10,,,IC50 (HSV- I; Vero): > 10 µg/mL; IC50 (VZV strain Ellen; [7]): 0.035 µg/mL
"CC(NC(=S)Nc1ccc(NC(=O)c2cc3ccccc3cn2)cc1)c1ccc(C#N)cc1 (stereo not drawn) [Example 986, Isoquinoline-3-carboxylic acid (4-{3-[1-(4-cyano-phenyl)-ethyl]-thioureido}-phenyl)-amide]",,,5.2,,,IC50 (HSV- I; Vero): > 10 µg/mL; IC50 (VZV strain Ellen; [7]): 0.05 µg/mL
"CC(NC(=S)Nc1ccc(NC(=O)c2cc3ccccc3cn2)cc1)c1ccc(Br)cc1 (stereo not drawn) [Example 987, Isoquinoline-3-carboxylic acid (4-{3-[1-(4-bromo-phenyl)-ethyl]-thioureido}-phenyl)-amide]",,,1.5,,,IC50 (HSV- I; Vero): 3 µg/mL; IC50 (VZV strain Ellen; [7]): 0.046 µg/mL
"CC(NC(=S)Nc1ccc(NC(=O)c2cnc3ccccc3c2)cc1)c1ccc(F)cc1 (stereo not drawn) [Example 988, Quinoline-3-carboxylic acid (4-{3-[1-(4-fluoro-phenyl)-ethyl]-thioureido}-phenyl)-amide]",> 10,3.4,> 10,,,
"CC(NC(=S)Nc1ccc(NC(=O)c2ccnc3ccccc23)cc1)c1ccc(F)cc1 (stereo not drawn) [Example 989, Quinoline-4-carboxylic acid (4-{3-[1-(4-fluoro-phenyl)-ethyl]-thioureido}-phenyl)-amide]",4.1,3,2.9,,,
"CC(NC(=S)Nc1ccc(NC(=O)c2ccc3ncccc3c2)cc1)c1ccc(F)cc1 (stereo not drawn) [Example 990, Quinoline-6-carboxylic acid (4-{3-[1-(4-fluoro-phenyl)-ethyl]-thioureido}-phenyl)-amide]",8.9,3.5,4.4,,,
